Data from PMC12668310, “High‐Throughput Synthesis and Screening of a Cyanimide Library Identifies Selective Inhibitors of ISG15‐Specific Protease mUSP18” (Angewandte Chemie (International Ed. in English), 2025).
Like-named read-outs stand apart in the source and are kept apart here.

Target: T1, mUSP18 (Mus musculus, UniProt Q9WTV6)
T1 construct: (46-368); His-tag (N); made in house
T1 sequence (Q9WTV6 46-368): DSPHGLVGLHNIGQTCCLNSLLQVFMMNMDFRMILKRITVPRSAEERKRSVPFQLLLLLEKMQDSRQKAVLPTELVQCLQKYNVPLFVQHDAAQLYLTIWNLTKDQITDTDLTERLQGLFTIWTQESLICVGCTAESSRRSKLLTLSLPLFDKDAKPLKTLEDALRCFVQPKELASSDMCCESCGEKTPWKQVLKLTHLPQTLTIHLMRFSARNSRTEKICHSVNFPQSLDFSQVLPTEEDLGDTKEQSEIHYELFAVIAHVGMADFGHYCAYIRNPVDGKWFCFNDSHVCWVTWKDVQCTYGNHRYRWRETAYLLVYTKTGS
Assay: High-throughput screening, ISG15ct-RhoMP, single dose 1.25 µM
Format: biochemical, murine
Conditions: for inhibition at 1.25 µM: mUSP18 %inhibition; for inhibition of mUSP18 by individual CA's and coupling reagents: screened with and without DIC/HOBt

[1] = carboxylic acid (CA) building block alone, read-out: %inh CA only
[2] = carboxylic acid (CA) with coupling reagents DIC/HOBT, read-out: %inh CA + DIC/HOBT

inhibition at 1.25 µM [1]	inhibition at 1.25 µM [2]	inhibition of mUSP18 by individual CA's and coupling reagents	Compound
2.12%	9.77%		O=C(O)[1C@@H]1CCCO[1C@H]1c1ccccc1 [CA370]
1.66%	2.42%		O=C(O)C1CCCN(S(=O)(=O)c2cccs2)C1 (centres unmarked) [CA371]
5.98%	8.2%		O=C(O)c1ccc(Cn2cc(Cl)c(C(F)(F)F)n2)o1 [CA372]
0.43%	4.83%		COc1ccc(C(=O)O)cc1S(=O)(=O)N(C)CCc1cccnc1 [CA373]
0.78%	1.18%		O=C(O)CC1CCN(c2ccc(C(F)(F)F)cn2)CC1 [CA374]
-1.76%	7.93%		O=C(O)c1cccnc1-n1cncn1 [CA375]
6.04%	-8.39%		CCc1ccc(C(=O)N2CCC(C(=O)O)CC2)o1 [CA376]
2.74%	-10.8%		O=C(O)c1cnn(-c2ccccc2)n1 [CA377]
1.59%	-10.4%		Cc1nc(-c2ccsc2)ccc1C(=O)O [CA378]
-2.55%	-9.97%		CN(C)S(=O)(=O)c1ccc(N2CCCCC2)c(C(=O)O)c1 [CA379]
-5.77%	-9.23%		O=C(O)c1cnc(Cc2ccc(F)cc2)s1 [CA380]
1.09%	-13.7%		Cc1cc(C)cc(N(CCC(=O)O)S(=O)(=O)c2ccc(Cl)cc2)c1 [CA381]
-3.25%	-8.03%		O=C(O)c1csc(CCc2ccccc2)n1 [CA382]
-4.57%	-8.55%		O=C(O)c1ccc(-c2nnco2)cc1 [CA383]
-2.51%	-6.89%		O=C(O)c1ccccc1Cn1cncn1 [CA384]
-2.43%	-10.4%		O=C(O)Cc1cnn(Cc2ccccc2)c1 [CA385]
-2.54%	-7.62%		CN(CC1CC1)c1ccc(C(F)(F)F)cc1C(=O)O [CA386]

inhibition at 1.25 µM [1]	inhibition at 1.25 µM [2]	inhibition of mUSP18 by individual CA's and coupling reagents	Compound
-2.91%	-4.58%		CNS(=O)(=O)c1ccc(-c2ccc(Cl)c(Cl)c2)c(C(=O)O)c1 [CA387]
-10.4%	-3.35%		O=C(O)Cc1csc(N2CCCC2=O)n1 [CA388]
-6.73%	-5.95%		CC1CN(S(=O)(=O)c2ccc(C(=O)O)cc2)CC(C)O1 (centres unmarked) [CA389]
-7.59%	-4.7%		Cc1ncsc1C(=O)N(C)c1ccccc1C(=O)O [CA390]
-10.9%	63.9%	could inhibit mUSP18	O=C(O)Cc1ccc(-n2cccc2)cc1 [CA391]
71.2%	56.5%	could inhibit mUSP18	O=C(O)c1sccc1-n1cccc1 [CA392]
-1.56%	-1.99%		O=C(O)c1coc(C#Cc2ccccc2)c1 [CA393]
-5.76%	-1.48%		O=C(O)c1cccc(Oc2ccc(Cl)cc2)n1 [CA394]
-7.15%	-4.5%		O=C(O)c1cccnc1Oc1ccccc1Br [CA395]
-5.61%	1.41%		O=C(O)c1cnn(-c2ccc(C(F)(F)F)cc2)c1 [CA396]
-10.2%	-2.23%		Cc1c[nH]c(=O)n1-c1cccc(C(=O)O)c1 [CA397]
-2.93%	2.57%		Cc1ccc(Oc2ccc(C(=O)O)nc2)cc1 [CA398]
-10.1%	-0.24%		O=C(O)c1ccc(OCc2cccnc2)cc1 [CA399]
8.86%	4.12%		CCn1cc([1C@@H]2OCCC[1C@H]2C(=O)O)cn1 [CA400]
8.14%	-4.27%		O=C(O)c1ccc(C#Cc2ccccc2)cc1 [CA401]
0.37%	-9.76%		O=C(O)C1CCN1C1CCCC1 (centres unmarked) [CA402]
